Results from the supplement of paper PMC10307832.

How the values were obtained:
Experiment in all cases: relative viability (nuclei count vs DMSO), 5 days (fraction); higher = more cells survive
NCI-H1755 = system: NCI-H1755
Procedure, shortened: (§1)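 After 5 days of treatment, lung cancer cells in 1536-well plates were fixed and stained in a single step (final 0.05% Triton X-100, 1% formaldehyde, 1 ug/ml Hoechst) and their nuclei counted on 4× images. Treatment had been applied by pin tool the day after seeding as one drug alone or as a fixed anchor-drug dose with five library-drug doses (not always all listed) in √10 steps. Relative viability is the nuclei count of treated wells divided by that of vehicle wells, and values are medians of duplicate plates.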

SK-LU-1 = system: SK-LU-1
Procedure, shortened: as §1

PC-14 = system: PC-14
Procedure, shortened: as §1

H3255 = system: H3255
Procedure, shortened: as §1

HCC-15 = system: HCC-15
Procedure, shortened: as §1

NCI-H1437 = system: NCI-H1437
Procedure, shortened: as §1

NCI-H1915 = system: NCI-H1915
Procedure, shortened: as §1

NCI-H2405 = system: NCI-H2405
Procedure, shortened: as §1

NCI-H2023 = system: NCI-H2023
Procedure, shortened: as §1

NCI-H460 = system: NCI-H460
Procedure, shortened: as §1

UMC-11 = system: UMC-11
Procedure, shortened: as §1

NCI-H3122 = system: NCI-H3122
Procedure, shortened: as §1

A-427 = system: A-427
Procedure, shortened: as §1

NCI-H1793 = system: NCI-H1793
Procedure, shortened: as §1

LXF-289 = system: LXF-289
Procedure, shortened: as §1

HARA = system: HARA
Procedure, shortened: as §1

NCI-H596 = system: NCI-H596
Procedure, shortened: as §1

NCI-H2009 = system: NCI-H2009
Procedure, shortened: as §1

PC-3 [JPC-3] = system: PC-3 [JPC-3]
Procedure, shortened: as §1

NCI-H441 = system: NCI-H441
Procedure, shortened: as §1

NCI-H650 = system: NCI-H650
Procedure, shortened: as §1

NCI-H1975 = system: NCI-H1975
Procedure, shortened: as §1

Cc1cnc(-c2cnc(NCCNc3ccc(C#N)cn3)nc2-c2ccc(Cl)cc2Cl)[nH]1 + CCNC(=O)c1noc(-c2cc(C(C)C)c(O)cc2O)c1-c1ccc(CN2CCOCC2)cc1 [Luminespib] (partner 0.01 µM)
relative viability (NCI-H1755; first compound 0.08 µM): 0.614
relative viability (NCI-H1755; first compound 0.253 µM): 0.327
relative viability (NCI-H1755; first compound 0.8 µM): 0.59
relative viability (NCI-H1755; first compound 2.53 µM): 0.385
relative viability (SK-LU-1; first compound 0.08 µM): 0.196
relative viability (SK-LU-1; first compound 0.253 µM): 0.238
relative viability (SK-LU-1; first compound 0.8 µM): 0.186
relative viability (SK-LU-1; first compound 2.53 µM): 0.213
relative viability (PC-14; first compound 0.08 µM): 0.151
relative viability (PC-14; first compound 0.253 µM): 0.24
relative viability (PC-14; first compound 0.8 µM): 0.107
relative viability (PC-14; first compound 2.53 µM): 0.18
relative viability (H3255; first compound 0.08 µM): 0.96
relative viability (H3255; first compound 0.253 µM): 0.933
relative viability (H3255; first compound 0.8 µM): 0.977
relative viability (H3255; first compound 2.53 µM): 0.835
relative viability (HCC-15; first compound 0.08 µM): 0.303
relative viability (HCC-15; first compound 0.253 µM): 0.217
relative viability (HCC-15; first compound 0.8 µM): 0.318
relative viability (HCC-15; first compound 2.53 µM): 0.398
relative viability (NCI-H1437; first compound 0.08 µM): 1.06
relative viability (NCI-H1437; first compound 0.253 µM): 1.06
relative viability (NCI-H1437; first compound 0.8 µM): 1.14
relative viability (NCI-H1437; first compound 2.53 µM): 1.14
relative viability (NCI-H1915; first compound 0.08 µM): 0.808
relative viability (NCI-H1915; first compound 0.253 µM): 0.587
relative viability (NCI-H1915; first compound 0.8 µM): 0.753
relative viability (NCI-H1915; first compound 2.53 µM): 0.779
relative viability (NCI-H2405; first compound 0.08 µM): 0.763
relative viability (NCI-H2405; first compound 0.253 µM): 0.552
relative viability (NCI-H2405; first compound 0.8 µM): 0.822
relative viability (NCI-H2405; first compound 2.53 µM): 0.574
relative viability (NCI-H2023; first compound 0.08 µM): 0.872
relative viability (NCI-H2023; first compound 0.253 µM): 0.751
relative viability (NCI-H2023; first compound 0.8 µM): 0.863
relative viability (NCI-H2023; first compound 2.53 µM): 0.774
relative viability (NCI-H460; first compound 0.08 µM): 0.0473
relative viability (NCI-H460; first compound 0.253 µM): 0.0403
relative viability (NCI-H460; first compound 0.8 µM): 0.0345
relative viability (NCI-H460; first compound 2.53 µM): 0.0279
relative viability (UMC-11; first compound 0.08 µM): 1.02
relative viability (UMC-11; first compound 0.253 µM): 0.934
relative viability (UMC-11; first compound 0.8 µM): 1.03
relative viability (UMC-11; first compound 2.53 µM): 0.995
relative viability (NCI-H3122; first compound 0.08 µM): 0.124
relative viability (NCI-H3122; first compound 0.8 µM): 0.0778
relative viability (NCI-H3122; first compound 2.53 µM): 0.0737
relative viability (A-427; first compound 0.08 µM): 0.954
relative viability (A-427; first compound 0.253 µM): 0.828
relative viability (A-427; first compound 0.8 µM): 0.814
relative viability (A-427; first compound 2.53 µM): 0.916
relative viability (NCI-H1793; first compound 0.08 µM): 0.18
relative viability (NCI-H1793; first compound 0.253 µM): 0.173
relative viability (NCI-H1793; first compound 0.8 µM): 0.147
relative viability (NCI-H1793; first compound 2.53 µM): 0.201
relative viability (LXF-289; first compound 0.08 µM): 0.695
relative viability (LXF-289; first compound 0.253 µM): 0.605
relative viability (LXF-289; first compound 0.8 µM): 0.726
relative viability (LXF-289; first compound 2.53 µM): 0.665
relative viability (HARA; first compound 0.08 µM): 0.896
relative viability (HARA; first compound 0.253 µM): 0.568
relative viability (HARA; first compound 0.8 µM): 0.665
relative viability (HARA; first compound 2.53 µM): 0.709
relative viability (NCI-H596; first compound 0.08 µM): 1.06
relative viability (NCI-H596; first compound 0.253 µM): 1.03
relative viability (NCI-H596; first compound 0.8 µM): 1.05
relative viability (NCI-H596; first compound 2.53 µM): 1.24
relative viability (NCI-H2009; first compound 0.08 µM): 1.03
relative viability (NCI-H2009; first compound 0.253 µM): 0.984
relative viability (NCI-H2009; first compound 0.8 µM): 0.995
relative viability (NCI-H2009; first compound 2.53 µM): 0.975
relative viability (PC-3 [JPC-3]; first compound 0.08 µM): 0.795
relative viability (PC-3 [JPC-3]; first compound 0.253 µM): 0.706
relative viability (PC-3 [JPC-3]; first compound 0.8 µM): 0.675
relative viability (PC-3 [JPC-3]; first compound 2.53 µM): 0.661
relative viability (NCI-H441; first compound 0.08 µM): 0.409
relative viability (NCI-H441; first compound 0.253 µM): 0.342
relative viability (NCI-H441; first compound 0.8 µM): 0.311
relative viability (NCI-H441; first compound 2.53 µM): 0.276
relative viability (NCI-H650; first compound 0.08 µM): 0.806
relative viability (NCI-H650; first compound 0.253 µM): 0.768
relative viability (NCI-H650; first compound 0.8 µM): 0.758
relative viability (NCI-H650; first compound 2.53 µM): 0.76
relative viability (NCI-H1975; first compound 0.08 µM): 0.21
relative viability (NCI-H1975; first compound 0.253 µM): 0.252
relative viability (NCI-H1975; first compound 0.8 µM): 0.191
relative viability (NCI-H1975; first compound 2.53 µM): 0.189
